From paper PMC5725665, “Discovery of a Highly Selective Cell‐Active Inhibitor of the Histone Lysine Demethylases KDM2/7” (Angewandte Chemie (International Ed. in English), 2017) come the findings set out here.

Assay in all cases: biochemical
Set-up in all cases: AlphaScreen histone demethylase activity assay

One assay concerns the target JMJD3A (KDM6B) (Homo sapiens, UniProt O15054). Conditions: read-out: KDM6B pIC50 (converted).
For another assay, the target named is JARID1B (KDM5B) (Homo sapiens, UniProt Q9UGL1). Conditions: read-out: KDM5B pIC50 (converted).
The target of a further assay is JARID1C (KDM5C) (Homo sapiens, UniProt P41229). Conditions: read-out: KDM5C pIC50 (converted).
The target in the next assay is JARID1A (KDM5A) (Homo sapiens, UniProt P29375).
The target of the next assay is PHF8 (KDM7B) (Homo sapiens, UniProt Q9UPP1). Conditions: read-out: KDM7B pIC50 (converted).
For a further assay, the target named is T1, JMJD2C (KDM4C) (Homo sapiens, UniProt Q9H3R0).
T1 sequence (Q9H3R0 1-1056): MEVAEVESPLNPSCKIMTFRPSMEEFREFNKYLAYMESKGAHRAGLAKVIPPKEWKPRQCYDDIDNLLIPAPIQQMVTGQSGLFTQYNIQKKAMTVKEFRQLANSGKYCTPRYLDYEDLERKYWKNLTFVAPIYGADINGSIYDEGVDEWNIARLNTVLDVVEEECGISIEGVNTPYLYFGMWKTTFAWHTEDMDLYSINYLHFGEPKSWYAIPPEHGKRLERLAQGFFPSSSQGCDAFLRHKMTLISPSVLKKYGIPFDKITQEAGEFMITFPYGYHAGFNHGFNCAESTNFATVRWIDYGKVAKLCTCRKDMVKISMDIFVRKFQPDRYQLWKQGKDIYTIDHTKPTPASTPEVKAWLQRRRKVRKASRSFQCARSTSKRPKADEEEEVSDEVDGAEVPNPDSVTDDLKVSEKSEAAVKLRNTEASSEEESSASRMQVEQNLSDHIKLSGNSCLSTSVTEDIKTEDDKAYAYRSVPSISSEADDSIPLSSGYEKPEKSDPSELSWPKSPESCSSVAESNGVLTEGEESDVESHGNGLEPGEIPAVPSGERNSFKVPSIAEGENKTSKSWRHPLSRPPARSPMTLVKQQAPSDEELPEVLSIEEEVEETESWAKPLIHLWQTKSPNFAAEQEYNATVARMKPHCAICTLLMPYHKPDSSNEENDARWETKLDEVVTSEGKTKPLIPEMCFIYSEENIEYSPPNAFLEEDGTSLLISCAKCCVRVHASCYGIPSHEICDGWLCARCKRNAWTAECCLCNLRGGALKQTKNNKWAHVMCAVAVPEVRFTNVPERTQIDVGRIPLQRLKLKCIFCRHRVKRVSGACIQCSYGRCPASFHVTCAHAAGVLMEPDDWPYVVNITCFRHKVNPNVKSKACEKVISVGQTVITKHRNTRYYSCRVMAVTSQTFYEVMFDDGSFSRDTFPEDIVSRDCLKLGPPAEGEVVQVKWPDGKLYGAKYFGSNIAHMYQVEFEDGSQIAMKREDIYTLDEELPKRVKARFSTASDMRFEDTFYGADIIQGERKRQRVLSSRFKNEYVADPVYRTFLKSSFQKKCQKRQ

A further assay has as its target T2, JMJD2D (KDM4D) (Homo sapiens, UniProt Q6B0I6).
T2 sequence (Q6B0I6 1-523): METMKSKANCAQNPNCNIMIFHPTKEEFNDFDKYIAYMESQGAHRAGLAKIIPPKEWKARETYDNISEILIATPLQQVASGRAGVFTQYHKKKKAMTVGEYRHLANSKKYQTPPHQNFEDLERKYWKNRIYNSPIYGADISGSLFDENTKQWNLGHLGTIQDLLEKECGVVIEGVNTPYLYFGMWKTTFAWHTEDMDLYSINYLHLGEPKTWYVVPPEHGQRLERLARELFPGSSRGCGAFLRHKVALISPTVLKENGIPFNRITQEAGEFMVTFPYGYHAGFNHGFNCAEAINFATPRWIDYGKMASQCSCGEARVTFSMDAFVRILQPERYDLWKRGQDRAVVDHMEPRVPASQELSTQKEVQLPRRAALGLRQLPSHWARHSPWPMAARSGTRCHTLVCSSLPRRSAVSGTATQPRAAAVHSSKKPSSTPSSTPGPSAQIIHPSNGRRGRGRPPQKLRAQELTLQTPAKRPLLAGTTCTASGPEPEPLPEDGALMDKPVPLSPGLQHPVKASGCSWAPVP

JARID1A (KDM5A), sequence (P29375 whole entry): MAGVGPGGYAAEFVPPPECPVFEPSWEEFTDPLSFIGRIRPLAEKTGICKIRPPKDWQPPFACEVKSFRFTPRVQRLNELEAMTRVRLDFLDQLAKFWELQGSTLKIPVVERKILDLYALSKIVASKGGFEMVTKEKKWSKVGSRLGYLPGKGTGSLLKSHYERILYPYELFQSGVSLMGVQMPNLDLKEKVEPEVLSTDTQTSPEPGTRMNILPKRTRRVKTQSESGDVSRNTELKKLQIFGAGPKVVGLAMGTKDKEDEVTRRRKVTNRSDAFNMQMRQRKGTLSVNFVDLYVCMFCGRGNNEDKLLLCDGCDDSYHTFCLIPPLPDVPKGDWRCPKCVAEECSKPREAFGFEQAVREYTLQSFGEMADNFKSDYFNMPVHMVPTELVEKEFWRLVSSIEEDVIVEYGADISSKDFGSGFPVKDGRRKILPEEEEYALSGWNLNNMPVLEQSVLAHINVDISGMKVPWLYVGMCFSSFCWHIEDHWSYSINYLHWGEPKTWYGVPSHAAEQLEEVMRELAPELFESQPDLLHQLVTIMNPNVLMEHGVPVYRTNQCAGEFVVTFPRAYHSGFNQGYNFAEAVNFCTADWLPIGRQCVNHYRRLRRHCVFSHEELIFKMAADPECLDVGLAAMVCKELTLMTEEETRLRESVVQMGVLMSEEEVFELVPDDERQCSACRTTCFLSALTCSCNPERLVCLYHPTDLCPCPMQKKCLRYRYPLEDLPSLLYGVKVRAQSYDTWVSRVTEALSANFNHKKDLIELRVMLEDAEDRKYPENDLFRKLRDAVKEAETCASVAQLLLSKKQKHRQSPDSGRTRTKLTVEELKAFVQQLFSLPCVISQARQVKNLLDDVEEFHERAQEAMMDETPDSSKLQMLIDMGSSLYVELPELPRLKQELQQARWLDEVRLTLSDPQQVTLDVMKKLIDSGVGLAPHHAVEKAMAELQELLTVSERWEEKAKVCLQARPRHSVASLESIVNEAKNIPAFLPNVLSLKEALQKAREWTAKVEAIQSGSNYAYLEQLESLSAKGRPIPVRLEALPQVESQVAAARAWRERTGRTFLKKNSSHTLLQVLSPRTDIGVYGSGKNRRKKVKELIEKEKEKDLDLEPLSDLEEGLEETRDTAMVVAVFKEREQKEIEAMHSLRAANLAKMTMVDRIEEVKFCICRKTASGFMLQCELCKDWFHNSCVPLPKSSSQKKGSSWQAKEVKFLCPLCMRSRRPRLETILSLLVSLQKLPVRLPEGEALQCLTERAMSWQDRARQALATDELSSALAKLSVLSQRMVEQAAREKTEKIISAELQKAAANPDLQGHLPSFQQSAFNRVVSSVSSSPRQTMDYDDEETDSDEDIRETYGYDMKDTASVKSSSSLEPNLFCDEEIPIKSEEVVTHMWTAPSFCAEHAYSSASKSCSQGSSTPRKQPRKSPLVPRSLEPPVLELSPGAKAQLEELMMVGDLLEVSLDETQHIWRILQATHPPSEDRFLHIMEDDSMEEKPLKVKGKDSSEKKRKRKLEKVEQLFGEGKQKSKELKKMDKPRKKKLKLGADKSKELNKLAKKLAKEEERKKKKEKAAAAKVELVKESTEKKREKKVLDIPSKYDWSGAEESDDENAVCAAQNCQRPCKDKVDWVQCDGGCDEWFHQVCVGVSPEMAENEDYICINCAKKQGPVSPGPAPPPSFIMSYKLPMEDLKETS
PHF8 (KDM7B), sequence (Q9UPP1 whole entry): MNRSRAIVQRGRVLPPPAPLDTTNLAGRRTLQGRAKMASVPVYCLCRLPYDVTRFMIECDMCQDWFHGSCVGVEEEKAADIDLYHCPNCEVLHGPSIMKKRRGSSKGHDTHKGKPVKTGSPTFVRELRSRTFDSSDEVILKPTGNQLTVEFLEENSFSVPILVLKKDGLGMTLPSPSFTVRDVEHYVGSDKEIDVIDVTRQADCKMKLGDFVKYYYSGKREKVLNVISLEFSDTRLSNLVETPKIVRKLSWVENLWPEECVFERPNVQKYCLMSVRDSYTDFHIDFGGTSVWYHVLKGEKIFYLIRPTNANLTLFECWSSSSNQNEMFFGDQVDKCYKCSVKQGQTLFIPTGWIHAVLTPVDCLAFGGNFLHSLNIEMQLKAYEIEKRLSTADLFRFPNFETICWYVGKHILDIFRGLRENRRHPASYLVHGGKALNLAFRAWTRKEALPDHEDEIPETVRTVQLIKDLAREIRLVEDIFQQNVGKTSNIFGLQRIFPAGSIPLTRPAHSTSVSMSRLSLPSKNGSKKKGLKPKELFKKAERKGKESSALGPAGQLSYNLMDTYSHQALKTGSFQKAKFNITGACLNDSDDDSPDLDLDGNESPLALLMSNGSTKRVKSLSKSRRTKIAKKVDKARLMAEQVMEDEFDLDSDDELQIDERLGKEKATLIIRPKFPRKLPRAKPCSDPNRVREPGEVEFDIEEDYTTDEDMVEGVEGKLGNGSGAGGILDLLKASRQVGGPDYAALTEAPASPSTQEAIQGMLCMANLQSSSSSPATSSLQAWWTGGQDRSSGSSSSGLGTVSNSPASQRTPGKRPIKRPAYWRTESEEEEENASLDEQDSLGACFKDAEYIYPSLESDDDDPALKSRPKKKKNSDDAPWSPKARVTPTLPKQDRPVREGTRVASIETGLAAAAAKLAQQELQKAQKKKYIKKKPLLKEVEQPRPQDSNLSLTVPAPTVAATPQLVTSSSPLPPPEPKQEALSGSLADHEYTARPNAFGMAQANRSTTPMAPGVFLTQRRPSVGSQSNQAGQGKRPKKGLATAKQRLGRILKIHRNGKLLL
JARID1B (KDM5B), sequence (Q9UGL1 whole entry): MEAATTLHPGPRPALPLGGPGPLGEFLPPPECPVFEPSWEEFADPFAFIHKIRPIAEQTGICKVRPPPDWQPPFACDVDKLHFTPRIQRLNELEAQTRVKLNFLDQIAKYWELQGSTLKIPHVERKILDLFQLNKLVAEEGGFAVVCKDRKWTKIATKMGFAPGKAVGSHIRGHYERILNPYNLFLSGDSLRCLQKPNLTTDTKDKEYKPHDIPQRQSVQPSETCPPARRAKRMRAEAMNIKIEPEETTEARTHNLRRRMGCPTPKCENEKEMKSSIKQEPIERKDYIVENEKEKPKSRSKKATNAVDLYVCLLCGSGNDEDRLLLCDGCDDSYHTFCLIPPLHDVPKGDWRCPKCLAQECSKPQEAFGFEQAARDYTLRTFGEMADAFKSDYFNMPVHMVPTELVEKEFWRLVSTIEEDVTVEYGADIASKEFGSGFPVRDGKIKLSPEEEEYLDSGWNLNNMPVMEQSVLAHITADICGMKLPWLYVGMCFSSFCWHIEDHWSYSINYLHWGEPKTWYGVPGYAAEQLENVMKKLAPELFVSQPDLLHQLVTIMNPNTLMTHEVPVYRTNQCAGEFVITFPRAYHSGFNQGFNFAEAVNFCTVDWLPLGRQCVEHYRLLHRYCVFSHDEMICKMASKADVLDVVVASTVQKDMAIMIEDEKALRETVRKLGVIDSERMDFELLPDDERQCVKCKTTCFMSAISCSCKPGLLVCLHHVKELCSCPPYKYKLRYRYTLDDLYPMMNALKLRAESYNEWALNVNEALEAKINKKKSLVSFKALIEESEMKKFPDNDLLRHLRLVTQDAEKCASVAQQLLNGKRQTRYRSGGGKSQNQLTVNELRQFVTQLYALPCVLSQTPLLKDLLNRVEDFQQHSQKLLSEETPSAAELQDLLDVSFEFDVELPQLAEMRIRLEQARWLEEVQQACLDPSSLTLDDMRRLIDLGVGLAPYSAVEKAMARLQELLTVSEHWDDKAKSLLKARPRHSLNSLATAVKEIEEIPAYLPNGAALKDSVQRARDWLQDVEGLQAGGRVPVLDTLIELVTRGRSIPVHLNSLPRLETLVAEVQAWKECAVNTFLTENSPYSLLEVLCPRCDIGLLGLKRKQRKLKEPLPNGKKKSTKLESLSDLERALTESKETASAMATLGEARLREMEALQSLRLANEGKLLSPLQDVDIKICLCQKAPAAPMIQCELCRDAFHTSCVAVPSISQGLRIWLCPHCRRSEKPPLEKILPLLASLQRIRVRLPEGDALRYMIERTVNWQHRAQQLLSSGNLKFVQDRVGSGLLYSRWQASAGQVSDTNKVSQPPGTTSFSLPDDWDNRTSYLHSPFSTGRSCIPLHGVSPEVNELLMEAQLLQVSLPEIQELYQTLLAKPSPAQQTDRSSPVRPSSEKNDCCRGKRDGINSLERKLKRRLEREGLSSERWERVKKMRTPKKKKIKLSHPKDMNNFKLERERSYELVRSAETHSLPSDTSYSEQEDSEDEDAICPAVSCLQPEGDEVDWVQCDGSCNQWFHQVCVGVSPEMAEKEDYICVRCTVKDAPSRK

For `CC(=O)N1c2ccccc2[C@@](C#N)(c2ccccc2)[C@@H]1c1cncc(CCCCCCCN2CCCC2)c1` [(S,S)-6], the IC50 at JMJD3A (KDM6B) was 19.8 µM; on JARID1B (KDM5B), 13.1 µM; at JARID1C (KDM5C), 15.7 µM; at JARID1A (KDM5A) (read-out: KDM5A pIC50 (converted)), > 50.1 µM; on PHF8 (KDM7B) it was 22.8 µM; on JMJD2C (KDM4C) (read-out: KDM4C pIC50 (converted)), > 100 µM. For the same molecule, the IC50 at JMJD2D (KDM4D) (read-out: KDM4D pIC50 (converted)) was > 100 µM. On JARID1A (KDM5A), the inhibition at 50 µM is -20.3%. Further, the inhibition at 10 µM at JMJD2C (KDM4C) (read-out: KDM4C % Inhib. (10 uM)) turned out to be 30.5%; against JMJD2D (KDM4D), 22.6%.
